Paper PMC9549968 (The Journal of investigative dermatology, 2021)
Positions of bridges follow the written chain, without caps; N, C: chain ends. No end group written: not given here.

Experiments:
[1] = molecular target: MRGPRX1 (Homo sapiens, UniProt Q96LB2); test: FLIPR calcium imaging, HEK293 expressing MRGPRX1; format: cell-based; conditions: SEM
[2] = test system: LAD2 cells
[3] = molecular target: MRGPRX3 (Homo sapiens, UniProt Q96LB0); test: FLIPR calcium imaging, HEK293 expressing MRGPRX3; format: cell-based
MRGPRX3, sequence (Q96LB0 whole entry): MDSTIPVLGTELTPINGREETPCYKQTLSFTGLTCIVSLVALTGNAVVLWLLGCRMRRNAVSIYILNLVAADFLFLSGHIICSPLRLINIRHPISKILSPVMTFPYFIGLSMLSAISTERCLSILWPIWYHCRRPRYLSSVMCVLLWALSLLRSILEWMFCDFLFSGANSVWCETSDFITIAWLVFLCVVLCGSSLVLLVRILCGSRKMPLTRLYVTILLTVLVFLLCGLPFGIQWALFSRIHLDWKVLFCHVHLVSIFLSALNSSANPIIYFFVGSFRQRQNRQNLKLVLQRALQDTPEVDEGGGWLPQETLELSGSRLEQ

[4] = molecular target: T1, MRGPRX2 (Homo sapiens, UniProt Q96LB1); test: FLIPR calcium imaging, HEK293 expressing MRGPRX2; format: cell-based; conditions: SEM
T1 sequence (Q96LB1 1-330): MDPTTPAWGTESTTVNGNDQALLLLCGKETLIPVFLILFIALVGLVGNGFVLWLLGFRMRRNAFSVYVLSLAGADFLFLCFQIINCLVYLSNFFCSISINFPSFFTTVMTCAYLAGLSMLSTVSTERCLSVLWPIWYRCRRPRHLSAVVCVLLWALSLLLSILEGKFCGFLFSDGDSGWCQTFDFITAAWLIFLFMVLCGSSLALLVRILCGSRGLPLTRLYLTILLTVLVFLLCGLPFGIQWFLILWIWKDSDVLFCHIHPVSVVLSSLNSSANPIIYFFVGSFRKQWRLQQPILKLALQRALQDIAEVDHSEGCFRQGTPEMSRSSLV

[5] = test system: Mrgpra3-Cre-GFP neurons; test: Whole-cell patch-clamp recording of Mrgpra3-Cre-GFP neurons; format: cell-based, mouse; conditions: n=8/8
[6] = molecular target: T2, Mrgprb2 (Mus musculus, UniProt Q3KNA1); test: FLIPR calcium imaging, HEK293 expressing Mrgprb2; format: cell-based
T2 sequence (Q3KNA1 1-338): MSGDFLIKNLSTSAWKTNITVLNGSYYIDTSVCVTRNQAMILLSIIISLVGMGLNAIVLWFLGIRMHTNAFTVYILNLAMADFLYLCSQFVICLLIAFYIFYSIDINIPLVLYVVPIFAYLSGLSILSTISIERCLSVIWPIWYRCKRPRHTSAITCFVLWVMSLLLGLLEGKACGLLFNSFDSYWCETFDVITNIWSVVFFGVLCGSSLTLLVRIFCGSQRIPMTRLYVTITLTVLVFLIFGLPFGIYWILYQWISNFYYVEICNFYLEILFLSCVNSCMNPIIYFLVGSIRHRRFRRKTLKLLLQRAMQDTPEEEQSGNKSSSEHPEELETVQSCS

[7] = test system: mice; test: Itch behavior: scratching bouts after intradermal injection; format: in vivo, mouse; conditions: for itch-responses (scratching bouts): mice, intradermal injection 1mM, 10μL, versus saline, n=8-12
[8] = molecular target: T3, Mrgpra1 (Mus musculus, UniProt Q91WW5); test: FLIPR calcium imaging, HEK293 expressing Mrgpra1; format: cell-based; conditions: SEM
T3 sequence (Q91WW5 1-304): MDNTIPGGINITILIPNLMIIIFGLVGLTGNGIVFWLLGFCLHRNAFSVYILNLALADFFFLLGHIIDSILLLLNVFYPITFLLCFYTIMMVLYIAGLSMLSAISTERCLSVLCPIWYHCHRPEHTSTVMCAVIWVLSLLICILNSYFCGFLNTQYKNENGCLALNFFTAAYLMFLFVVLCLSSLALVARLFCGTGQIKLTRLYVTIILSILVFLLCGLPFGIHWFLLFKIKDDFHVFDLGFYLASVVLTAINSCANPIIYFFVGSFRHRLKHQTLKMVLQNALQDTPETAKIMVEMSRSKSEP

[9] = molecular target: T4, Mrgprc11 (Mus musculus, UniProt Q8CIP3); test: FLIPR calcium imaging, HEK293 expressing Mrgprc11; format: cell-based
T4 sequence (Q8CIP3 1-322): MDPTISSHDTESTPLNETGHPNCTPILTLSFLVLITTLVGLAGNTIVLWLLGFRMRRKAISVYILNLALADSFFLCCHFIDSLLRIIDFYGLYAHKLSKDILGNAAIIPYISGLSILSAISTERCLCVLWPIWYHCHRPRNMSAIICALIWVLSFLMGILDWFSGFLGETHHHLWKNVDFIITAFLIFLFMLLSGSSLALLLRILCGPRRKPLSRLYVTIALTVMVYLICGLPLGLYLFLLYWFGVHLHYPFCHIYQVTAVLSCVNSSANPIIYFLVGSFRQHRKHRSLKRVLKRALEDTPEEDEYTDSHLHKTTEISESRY

[10] = molecular target: T5, Mrgpra3 (Mus musculus, UniProt Q91WW3); test: FLIPR calcium imaging, HEK293 expressing Mrgpra3; format: cell-based
T5 sequence (Q91WW3 1-302): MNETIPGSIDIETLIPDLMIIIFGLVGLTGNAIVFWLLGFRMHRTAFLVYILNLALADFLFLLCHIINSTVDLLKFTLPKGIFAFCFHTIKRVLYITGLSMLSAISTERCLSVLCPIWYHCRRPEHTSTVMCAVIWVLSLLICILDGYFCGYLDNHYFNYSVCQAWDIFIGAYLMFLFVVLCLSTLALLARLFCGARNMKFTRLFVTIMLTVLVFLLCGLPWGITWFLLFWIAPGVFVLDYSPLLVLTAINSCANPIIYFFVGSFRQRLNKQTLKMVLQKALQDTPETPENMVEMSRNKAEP

[11] = molecular target: T6, Mrgpra2b (Mus musculus, UniProt Q91WW4); test: FLIPR calcium imaging, HEK293 expressing Mrgpra2b; format: cell-based
T6 sequence (Q91WW4 1-305): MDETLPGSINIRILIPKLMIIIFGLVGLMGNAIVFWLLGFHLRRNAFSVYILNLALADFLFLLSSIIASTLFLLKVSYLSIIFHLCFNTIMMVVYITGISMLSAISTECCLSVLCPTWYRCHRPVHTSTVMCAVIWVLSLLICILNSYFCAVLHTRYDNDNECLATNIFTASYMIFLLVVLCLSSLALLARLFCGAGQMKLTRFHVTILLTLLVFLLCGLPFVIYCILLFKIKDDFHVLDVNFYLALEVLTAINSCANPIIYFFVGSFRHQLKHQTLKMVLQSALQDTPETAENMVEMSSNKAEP

[12] = test system: DRG neurons; test: Calcium imaging of cultured DRG neurons; format: cell-based, mouse; conditions: 352 neurons imaged

MRGPRX1, sequence (Q96LB2 whole entry): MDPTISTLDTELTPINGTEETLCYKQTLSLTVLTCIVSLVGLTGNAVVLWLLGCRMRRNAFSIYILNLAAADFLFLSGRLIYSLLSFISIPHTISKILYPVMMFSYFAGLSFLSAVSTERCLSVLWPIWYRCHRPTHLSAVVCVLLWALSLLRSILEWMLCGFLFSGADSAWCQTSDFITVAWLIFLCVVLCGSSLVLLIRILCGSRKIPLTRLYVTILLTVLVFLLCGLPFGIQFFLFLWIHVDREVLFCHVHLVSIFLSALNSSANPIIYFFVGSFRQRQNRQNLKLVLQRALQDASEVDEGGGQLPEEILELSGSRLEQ

Molecule	EC50 [1] [nM]	EC50 [4] [nM]	EC50 [6] [nM]	itch-responses (scratching bouts) [7]	EC50 [8] [nM]	other results
GIINTLQKYYCRVRGGRCAVLSCLPKEEQIGKCSTRGRKCCRRKK (disulfide 11-40, 18-33, 23-41) [DEFB103]	280 ± 50	420 ± 110	–	–	–	activation of LAD2 cells, calcium imaging ([2]; peptide 1μM, compared with DEFB4): activated more LAD2 cells and evoked stronger calcium influx than the DEFB4; potency of DEFB103 relative to DEFB4 in LAD2 cells ([2]; ratio of EC50s, LAD2 calcium imaging): about 10 fold; EC50 [3]: 7400 ± 1900 nM
GIGDPVTCLKSGAICHPVFCPRRYKQIGTCGLPGTKCCKKP (disulfide 8-37, 15-30, 20-38) [DEFB4]	58300 ± 18000	17500 ± 3800	–	–	–	–
CCN(CC)CCCC(C)Nc1ccnc2cc(Cl)ccc12 (stereo not drawn) [CQ, chloroquine, reference compound]	–	–	–	–	–	action potential discharges in Mrgpra3-Cre-GFP neurons ([5]; 100μM): evoked action potential discharges
KKINNPVSCLRKGGRCWNRCIGNTRQIGSCGVPFLKCCKRK (disulfide 9-37, 16-30, 20-38) [Defb3]	–	–	11500 ± 3500	evoked a strong itch phenotype	2700 ± 600	–
Defb1: recombinant mouse β-defensin, constitutively highly expressed in skin (DQYKCLQHGGFCLRSSCPSNTKLQGTCKPDKPNCCKS; ends and bridges not checked; cysteine pairing not given here; UniProt P56386 33-69, looked up)	–	–	–	not significantly different from saline injection	–	–
FLPKTLRKFFCRIRGGRCAVLNCLGKEEQIGRCSNSGRKCCRKKK (disulfide 11-40, 18-33, 23-41) [Defb14]	610 ± 170	–	1700 ± 450	evoked the most intense itch phenotype	620 ± 160	action potential discharges in Mrgpra3-Cre-GFP neurons ([5]; 1μM): evoked action potential discharges; EC50 [9]: 21600 ± 11700 nM; EC50 [10]: 1000 ± 180 nM; Defb14 induced scratching in mast-cell deficient mice ([7]; Mcpt5-Cre::Rosa-stop-DTA mice versus wild-type controls, 1mM, p=0.87): did not attenuate; scratching responses in mice with ablated Mrgpra3-neurons ([7]; Mrgpra3-Cre::Rosa-stop-DTA mice (n=14) versus controls (n=12), 1mM, p=0.007): significantly attenuated; EC50 [11]: 19400 ± 8600 nM; Defb14-responsive neurons that responded to CQ ([12]; cultured mouse DRG neurons, AAV9-GCaMP6f): 46/55; calcium response of DRG neurons ([12]; dissociated mouse DRG neurons expressing GCaMP6f): induced calcium increases in DRG neurons
